Test results taken from US9994533B2, “Method of preparing ATG's analogue, and the application of ATG and it's analogue” (Longhua Hospital Shanghai University of Traditional Chinese …, priority 2016, dated 2018).

Assays:
NOX4 mRNA = NOX4 mRNA expression in mouse primary endothelial cells under high glucose (Realtime PCR); type: cell-based; conditions: FIG. 9
Source text: The detection method of Western Blot and mRNA used in the present embodiment is a detection method commonly used by person skilled in the art, and the specific detection method is described in “Molecular Biology Laboratory Manual” (People's Military Medical Press, published in 2011 Jun. 1). 3.2 Western blot and Realtime PCR confirmed that ATG could inhibit the overexpression of NOX4 in mouse's primary endothelial cells. The dose of 1 and 10 μmol/L corresponds to the last two bands.

[1] = target: T1, Heterogeneous nuclear ribonucleoprotein H2 (Homo sapiens, UniProt P55795); assay: DARTS mass spectrometry of 293T lysate after ATG; type: binding; conditions: ATG 300 μM, pronase 1:1000, HNRH2_HUMAN
T1 construct: endogenous in cells; host or cells: 293T
T1 sequence (P55795 1-449): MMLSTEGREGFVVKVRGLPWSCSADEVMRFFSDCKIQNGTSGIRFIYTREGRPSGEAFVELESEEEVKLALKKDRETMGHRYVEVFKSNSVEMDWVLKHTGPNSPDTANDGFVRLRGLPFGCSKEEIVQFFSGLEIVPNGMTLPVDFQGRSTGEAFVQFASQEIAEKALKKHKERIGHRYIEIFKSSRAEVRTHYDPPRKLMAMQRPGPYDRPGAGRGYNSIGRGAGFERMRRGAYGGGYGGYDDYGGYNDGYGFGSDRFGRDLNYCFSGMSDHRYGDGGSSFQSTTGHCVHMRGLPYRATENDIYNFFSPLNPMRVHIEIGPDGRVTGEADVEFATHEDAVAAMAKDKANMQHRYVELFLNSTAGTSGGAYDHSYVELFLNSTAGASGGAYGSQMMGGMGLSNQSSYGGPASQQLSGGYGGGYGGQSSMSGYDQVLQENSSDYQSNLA
Method: (§1) 293T cells were digested with M-PER mammalian protein extraction buffer (78501 ThermoFisher) and phosphatase inhibitor (50 mM NaF, 10 mM β-glycerophosphate, 5 mM sodium pyrophosphate, 2 mM Na3VO4); and the protein concentration is determined by Bradford method (500-0006 Bio-rad). ATG was either added or not in the cell lysate. If added, the concentration of ATG was 300 μM. The cells were incubated at room temperature for 1 h. The cells were then lysed by incubating for 20 minutes at room temperature with different concentrations of pronase at 1:1000 (10165921001, Roche). The two groups of lysates are subjected to mass spectrometry and then compared.

[2] = target: T2, Keratin, type II cytoskeletal 6A (Homo sapiens, UniProt P02538); assay: DARTS mass spectrometry of 293T lysate after ATG; type: binding; conditions: ATG 300 μM, pronase 1:1000, K2C6A_HUMAN
T2 construct: endogenous in cells; host or cells: 293T
T2 sequence (P02538 2-564 limits assumed): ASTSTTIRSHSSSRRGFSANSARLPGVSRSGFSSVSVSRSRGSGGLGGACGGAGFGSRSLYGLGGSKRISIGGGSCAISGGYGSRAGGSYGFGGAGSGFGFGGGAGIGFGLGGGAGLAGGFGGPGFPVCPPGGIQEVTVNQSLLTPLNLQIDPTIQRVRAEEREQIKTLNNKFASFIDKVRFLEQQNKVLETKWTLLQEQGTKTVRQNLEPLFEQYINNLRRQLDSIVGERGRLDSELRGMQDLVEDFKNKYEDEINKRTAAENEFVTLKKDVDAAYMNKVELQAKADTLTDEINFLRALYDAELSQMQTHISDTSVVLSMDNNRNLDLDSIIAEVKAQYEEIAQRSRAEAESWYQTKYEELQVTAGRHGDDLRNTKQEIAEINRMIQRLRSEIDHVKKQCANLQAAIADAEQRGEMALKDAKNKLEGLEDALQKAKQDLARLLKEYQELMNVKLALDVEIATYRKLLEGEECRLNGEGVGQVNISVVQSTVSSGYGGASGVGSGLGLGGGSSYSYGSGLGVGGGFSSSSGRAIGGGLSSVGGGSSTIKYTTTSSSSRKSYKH
Method: as §1

[3] = target: T3, Keratin, type I cytoskeletal 17 (Homo sapiens, UniProt Q04695); assay: DARTS mass spectrometry of 293T lysate after ATG; type: binding; conditions: ATG 300 μM, pronase 1:1000, K1C17_HUMAN
T3 construct: endogenous in cells; host or cells: 293T
T3 sequence (Q04695 1-432): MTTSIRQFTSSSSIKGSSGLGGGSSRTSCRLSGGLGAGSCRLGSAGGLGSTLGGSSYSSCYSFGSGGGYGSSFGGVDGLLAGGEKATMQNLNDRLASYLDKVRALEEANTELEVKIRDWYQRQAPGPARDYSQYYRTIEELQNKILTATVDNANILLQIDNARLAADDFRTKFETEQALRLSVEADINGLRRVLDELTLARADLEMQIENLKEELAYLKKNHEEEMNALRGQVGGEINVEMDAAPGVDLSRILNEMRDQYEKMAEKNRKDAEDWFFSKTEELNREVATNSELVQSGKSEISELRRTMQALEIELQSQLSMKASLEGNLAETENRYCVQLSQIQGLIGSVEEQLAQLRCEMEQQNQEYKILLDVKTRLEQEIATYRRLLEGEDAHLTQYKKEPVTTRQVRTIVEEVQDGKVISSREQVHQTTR
Method: as §1

[4] = target: T4, Keratin, type II cytoskeletal 5 (Homo sapiens, UniProt P13647); assay: DARTS mass spectrometry of 293T lysate after ATG; type: binding; conditions: ATG 300 μM, pronase 1:1000, K2C5_HUMAN
T4 construct: endogenous in cells; host or cells: 293T
T4 sequence (P13647 1-590): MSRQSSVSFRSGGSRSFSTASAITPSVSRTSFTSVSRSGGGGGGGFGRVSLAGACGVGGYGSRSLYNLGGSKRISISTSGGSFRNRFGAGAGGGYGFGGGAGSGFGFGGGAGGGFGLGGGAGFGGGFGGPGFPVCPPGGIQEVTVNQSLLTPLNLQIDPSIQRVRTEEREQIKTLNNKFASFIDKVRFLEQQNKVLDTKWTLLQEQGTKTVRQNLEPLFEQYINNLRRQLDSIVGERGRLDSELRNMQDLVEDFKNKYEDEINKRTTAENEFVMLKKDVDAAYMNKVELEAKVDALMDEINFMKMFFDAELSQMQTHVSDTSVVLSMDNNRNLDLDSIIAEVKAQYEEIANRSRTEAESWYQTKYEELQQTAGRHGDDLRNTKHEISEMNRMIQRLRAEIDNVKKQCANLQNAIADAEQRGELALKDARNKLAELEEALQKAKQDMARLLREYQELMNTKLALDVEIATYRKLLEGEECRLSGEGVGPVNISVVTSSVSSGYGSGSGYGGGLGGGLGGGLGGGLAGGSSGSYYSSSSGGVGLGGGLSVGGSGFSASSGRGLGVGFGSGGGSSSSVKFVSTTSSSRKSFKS
Method: as §1

[5] = target: T5, Protein transport protein Sec61 subunit alpha isoform 1 (Homo sapiens, UniProt P61619); assay: DARTS mass spectrometry of 293T lysate after ATG; type: binding; conditions: ATG 300 μM, pronase 1:1000, S61A1_HUMAN
T5 construct: endogenous in cells; host or cells: 293T
Method: as §1

Ratio (ATG/DMSO) [1]: 6.8
Spectral Count (ATG) [1]: 12
Ratio (ATG/DMSO) [2]: 5.2
Spectral Count (ATG) [2]: 8
Ratio (ATG/DMSO) [3]: 4.7
Spectral Count (ATG) [3]: 7
Ratio (ATG/DMSO) [4]: 4.7
Spectral Count (ATG) [4]: 7
Ratio (ATG/DMSO) [5]: 4.7
Spectral Count (ATG) [5]: 7
Structure (SMILES): COc1cc(C[C@H]2C(=O)OC[C@@H]2Cc2ccc(OC)c(OC)c2)ccc1O [ATG, Arctigenin]
overexpression of NOX4 mRNA induced by high glucose (NOX4 mRNA): inhibited the overexpression of NOX4 mRNA
